Results on two compounds are retold here after paper PMC9382192, “Combined treatment with epigenetic agents enhances anti-tumor activity of MAGE-D4 peptide-specific T cells by upregulating the MAGE-D4 expression in glioma” (Frontiers in Oncology, 2022).

For one assay, the system named is T cells. The assay can be described thus: CFSE lymphocyte proliferation assay. It counts as cell-based, human. To be noted: T cells with peptide-pulsed DCs, 96 h, flow cytometry. On the procedure: CFSE assay was used to further detect the proliferation of T cells stimulated by peptide-pulsed DCs. The cells were suspended at 10^6/ml with RPMI1640 and added CFSE (5 μM/ml), then incubated at room temperature for 20 min. Fetal bovine serum (FBS, Gbico, USA) was added and incubated for 5 min to terminate the reaction, washed with PBS twice. Then, the peptide-incubated DC was added, incubated for 96 h, and performed flow cytometry analysis.

The test system of a further assay is IFN-γ. Nature of the assay: IFN-γ ELISPOT. It counts as cell-based, human. To be noted: 1 × 10^6 T cells/well stimulated by peptide-pulsed DCs, 20 h. How it is done: The number of T cells secreting IFN-γ was measured by ELISPOT using Human IFN-γ precoated ELISPOT kit (Dakewe, Beijing, China). Briefly, RPMI 1640 complete medium was added for 5–10 min to activate the pre-coated plate. T cells (1 × 10^6/well) stimulated by peptide-pulsed DCs were added to each well and incubated in a 37°C 5% CO2 incubator for 20 h. After lysis in cold water, the biotin-labeled antibody was added and incubated at 37°C for 1 h, then the enzyme-labeled avidin was added and incubated at 37°C for 1 h. The spots present in each well were scanned using the CTL ELISPOT analyzer and counted using the ImmunoSpot Professional Software.

A further assay concerns U87. The assay can be described thus: Granzyme A and perforin ELISA, T cells with U87. The format is cell-based, human. To be noted: T cells stimulated by TSA-treated U87, E:T 50:1, 4 h. How it is done: (§1) The human glioma cell lines (U87-MG and U251) were obtained from the Cell Bank of Type Culture Collection of the Chinese Academy of Science (Shanghai, China). […] A3656), valproic acid (VPA, CAS No. 99-66-1), and trichostatin A (TSA, CAS No. 58880-19-6) were purchased from Sigma-Aldrich Corporation (St. Louis, MO, USA). DAC and TSA were dissolved in DMSO to a concentration of 10 mM. Aliquots were stored at −80°C and diluted with media before being used. […] Four hours later, suspended cells were collected for CD107a flow cytometry, meanwhile, the supernatant was collected and analyzed with granzyme A and perforin ELISA kit (Cloud-Clone Corporation, Wuhan, China) at 450 nm, and the LDH kit (Promega, USA) at 490 nm. The percentage of specific lysis was calculated using the following formula: [(experimental release − spontaneous release)/(maximum release − spontaneous release)] × 100. […] Then, the cytotoxicity assay was measured and calculated as mentioned above.
A general note: ELISA stands for enzyme-linked immunosorbent assay.

Another assay relates to U251. The assay can be described thus: Granzyme A and perforin ELISA, T cells with U251. It counts as cell-based, human. The following applies: T cells incubated with DAC + TSA-treated U251, E:T 50:1, 4 h. How it is done: as §1
For another assay, the system named is U87 cell-derived tumors. The assay can be described thus: In vivo xenograft tumor model. Details: species or system BALB/C nude female mice. How it is done: Eighteen BALB/C nude female mice aged 4 weeks were provided by the Guangxi Experimental Animal Center. The mice were placed in a light-controlled room at 24 ± 1 °C (light: 7:00–19:00 h, dark: 19:00–7:00 h) and fed under specific pathogen-free conditions. All protocols followed the guidelines of the National Research Council for the Care and Use of Laboratory Animals and were approved by the Animal Ethics Committee of Guangxi Medical University. To develop a xenograft model, 4 × 10^6 U87 cells were inoculated into the flanks of the mice subcutaneously. Two weeks later, mice simultaneously received intraperitoneal peritumorally injections of TSA (0.5 mg/kg) and 1 × 10^7 peptides loaded on CD8^+ T cells, respectively. Every […], tumor volumes were measured simultaneously with a caliper. Mice were sacrificed by euthanasia when visibly ill. Mice injected with negative peptide-induced CTLs and CTLs without peptides were included as controls. The tumor volumes were calculated using the following formula: tumor volume = [(width2 × length)/2].

In the case of CLPPPNVIL [Peptide P8], the “proliferation index (CFSE)” value in the assay on T cells (Figure 4B inset bottom left) was “highest”. For the same compound, in the assay on T cells (Figure 4B inset top left), the “percentage of cells that divided at least once (CFSE)” value is “highest”. The “number of IFN-γ secreting T cells (ELISPOT)” value with IFN-γ was “more than that in others”. The “granzyme A and perforin secreted by T cells” value with U87 is “the most granzyme A and perforin”; in the assay on U251, “the most granzyme A and perforin”. Further, the tumor volume result in the assay with U87 cell-derived tumors (U87 xenograft, 1 × 10^7 peptide-specific CD8+ T cells, compared with DC + Tc and NC-DC + Tc groups) is given as “significantly reduced”.
For the compound `CC(/C=C/C(=O)NO)=C\[C@@H](C)C(=O)c1ccc(N(C)C)cc1` [TSA, trichostatin A], the “granzyme A and perforin secreted by T cells” value in the assay on U87 is “more granzyme A and perforin”. Further, the tumor volume result in the assay on U87 cell-derived tumors (U87 pre-treated with TSA versus U87, both inoculated with P8-specific T cells, TSA 0.5 mg/kg) was “smaller”. In addition, the tumor growth entry in the assay with U87 cell-derived tumors (group treated with TSA versus group treated without TSA) is “slower”.
